Laboratory results as given in patent US20250163054A1, “SUBSTITUTED BICYCLIC HETEROARYL COMPOUNDS USEFUL AS INHIBITORS OF TLR9” (Bristol-Myers Squibb Company, priority 2022, published 2025).

Experiments:
Assay type in all cases: cell-based
human TLR9 = molecular target: T1, human TLR9 (Homo sapiens, UniProt Q9NR96); experiment: TLR7/8/9 Inhibition Reporter Assays (TLR9); settings: HEK-Blue cells overexpressing human TLR9, SEAP reporter, stimulated with TLR9 ligand ODN2006
T1 construct: host or cells: HEK-Blue cells (HEK293-derived reporter line)
T1 sequence (Q9NR96 26-1032): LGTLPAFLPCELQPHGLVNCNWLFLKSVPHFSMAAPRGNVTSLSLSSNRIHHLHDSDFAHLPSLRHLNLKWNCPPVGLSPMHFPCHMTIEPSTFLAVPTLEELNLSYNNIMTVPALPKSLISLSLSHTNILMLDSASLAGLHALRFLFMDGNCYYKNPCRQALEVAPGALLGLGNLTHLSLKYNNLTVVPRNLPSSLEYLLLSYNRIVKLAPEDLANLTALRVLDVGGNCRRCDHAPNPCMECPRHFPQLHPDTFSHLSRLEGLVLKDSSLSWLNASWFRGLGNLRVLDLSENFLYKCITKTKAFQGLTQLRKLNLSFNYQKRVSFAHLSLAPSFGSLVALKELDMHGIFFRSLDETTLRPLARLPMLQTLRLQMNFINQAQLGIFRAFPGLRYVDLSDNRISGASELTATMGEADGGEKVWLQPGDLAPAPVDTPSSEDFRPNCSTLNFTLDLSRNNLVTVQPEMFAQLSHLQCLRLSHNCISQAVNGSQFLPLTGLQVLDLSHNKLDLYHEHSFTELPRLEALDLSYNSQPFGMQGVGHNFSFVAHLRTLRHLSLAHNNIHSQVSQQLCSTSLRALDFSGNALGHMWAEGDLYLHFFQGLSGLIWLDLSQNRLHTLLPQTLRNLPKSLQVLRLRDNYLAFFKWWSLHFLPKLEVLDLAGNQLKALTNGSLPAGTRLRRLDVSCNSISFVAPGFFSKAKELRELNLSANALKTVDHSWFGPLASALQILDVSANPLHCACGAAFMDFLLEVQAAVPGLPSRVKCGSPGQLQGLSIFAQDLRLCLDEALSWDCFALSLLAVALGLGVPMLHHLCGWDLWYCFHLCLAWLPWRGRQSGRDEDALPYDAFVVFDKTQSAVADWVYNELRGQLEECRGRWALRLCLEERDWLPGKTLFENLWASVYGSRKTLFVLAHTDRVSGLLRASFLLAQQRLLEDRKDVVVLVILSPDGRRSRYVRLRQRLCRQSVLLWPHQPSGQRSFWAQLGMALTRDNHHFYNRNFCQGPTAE
How it was run: (§1)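 HEK-Blue cells overexpressing human TLR7, TLR8 or TLR9 with NF-κB/AP-1-driven SEAP reporter, pre-treated 60 min with compound ([…]). Stimulated with […] (TLR7), […] (TLR8) or ODN2006 200 nM (TLR9), then 22 h at 37° C; SEAP measured, % inhibition relative to agonist-plus-DMSO and known-inhibitor wells.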

human TLR7 = molecular target: T2, human TLR7 (Homo sapiens, UniProt Q9NYK1); experiment: TLR7/8/9 Inhibition Reporter Assays (TLR7); settings: HEK-Blue cells overexpressing human TLR7, SEAP reporter, stimulated with TLR7 ligand gardiquimod
T2 construct: host or cells: HEK-Blue cells (HEK293-derived reporter line)
T2 sequence (Q9NYK1 27-1049): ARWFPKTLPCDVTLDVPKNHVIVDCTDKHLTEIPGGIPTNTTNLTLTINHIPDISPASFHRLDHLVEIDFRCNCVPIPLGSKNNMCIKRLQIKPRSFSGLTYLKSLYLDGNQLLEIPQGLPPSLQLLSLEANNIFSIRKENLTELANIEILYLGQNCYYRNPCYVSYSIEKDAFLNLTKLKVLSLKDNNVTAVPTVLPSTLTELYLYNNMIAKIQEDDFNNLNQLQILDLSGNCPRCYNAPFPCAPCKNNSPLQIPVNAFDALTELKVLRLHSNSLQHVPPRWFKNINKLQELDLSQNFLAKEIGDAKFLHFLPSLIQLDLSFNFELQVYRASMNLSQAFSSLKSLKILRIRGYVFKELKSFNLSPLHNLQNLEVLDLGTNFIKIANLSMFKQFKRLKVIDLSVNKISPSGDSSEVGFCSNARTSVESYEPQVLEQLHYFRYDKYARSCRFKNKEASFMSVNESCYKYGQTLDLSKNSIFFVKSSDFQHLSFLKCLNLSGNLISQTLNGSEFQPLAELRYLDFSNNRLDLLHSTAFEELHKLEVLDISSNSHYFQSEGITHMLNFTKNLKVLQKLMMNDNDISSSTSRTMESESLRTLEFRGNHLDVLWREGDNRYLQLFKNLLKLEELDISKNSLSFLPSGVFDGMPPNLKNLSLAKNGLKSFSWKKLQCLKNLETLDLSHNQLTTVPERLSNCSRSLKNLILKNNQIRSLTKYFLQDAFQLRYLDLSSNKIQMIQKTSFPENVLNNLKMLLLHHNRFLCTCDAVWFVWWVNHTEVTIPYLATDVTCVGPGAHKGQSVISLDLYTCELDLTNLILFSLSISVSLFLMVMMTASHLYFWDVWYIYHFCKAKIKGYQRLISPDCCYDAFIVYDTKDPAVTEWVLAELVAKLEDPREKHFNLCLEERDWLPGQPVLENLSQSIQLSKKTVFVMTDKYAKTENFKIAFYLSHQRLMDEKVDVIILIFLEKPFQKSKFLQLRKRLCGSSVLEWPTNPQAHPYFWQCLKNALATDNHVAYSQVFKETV
How it was run: as §1

human TLR8 = molecular target: T3, human TLR8 (Homo sapiens, UniProt Q9NR97); experiment: TLR7/8/9 Inhibition Reporter Assays (TLR8); settings: HEK-Blue cells overexpressing human TLR8, SEAP reporter, stimulated with TLR8 ligand R848
T3 construct: host or cells: HEK-Blue cells (HEK293-derived reporter line)
T3 sequence (Q9NR97 27-1041): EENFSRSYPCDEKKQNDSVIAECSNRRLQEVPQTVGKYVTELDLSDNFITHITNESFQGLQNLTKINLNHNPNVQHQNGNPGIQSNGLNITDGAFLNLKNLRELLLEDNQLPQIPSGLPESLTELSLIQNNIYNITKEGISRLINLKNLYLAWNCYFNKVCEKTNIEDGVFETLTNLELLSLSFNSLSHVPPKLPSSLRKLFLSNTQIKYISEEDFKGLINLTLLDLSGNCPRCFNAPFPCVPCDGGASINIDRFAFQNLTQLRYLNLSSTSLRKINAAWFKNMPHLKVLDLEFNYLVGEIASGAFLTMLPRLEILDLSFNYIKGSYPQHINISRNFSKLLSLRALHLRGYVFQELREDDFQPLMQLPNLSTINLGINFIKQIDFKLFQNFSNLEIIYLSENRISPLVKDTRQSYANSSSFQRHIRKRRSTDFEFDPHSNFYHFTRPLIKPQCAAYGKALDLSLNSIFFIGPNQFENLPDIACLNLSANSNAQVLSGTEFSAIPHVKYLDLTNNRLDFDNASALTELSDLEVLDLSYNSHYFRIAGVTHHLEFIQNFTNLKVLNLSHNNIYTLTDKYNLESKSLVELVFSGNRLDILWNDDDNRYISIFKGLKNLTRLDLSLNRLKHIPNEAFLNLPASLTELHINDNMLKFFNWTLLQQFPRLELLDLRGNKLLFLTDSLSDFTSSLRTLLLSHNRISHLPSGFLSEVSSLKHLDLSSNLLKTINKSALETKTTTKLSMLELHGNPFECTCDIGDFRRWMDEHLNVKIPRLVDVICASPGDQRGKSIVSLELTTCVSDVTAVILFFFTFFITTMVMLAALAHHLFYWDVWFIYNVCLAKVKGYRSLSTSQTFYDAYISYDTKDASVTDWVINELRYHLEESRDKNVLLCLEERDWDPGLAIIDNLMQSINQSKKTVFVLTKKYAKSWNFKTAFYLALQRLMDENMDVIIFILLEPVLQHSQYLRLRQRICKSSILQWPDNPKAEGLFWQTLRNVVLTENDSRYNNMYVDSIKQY
How it was run: as §1

Row | IC50 (human TLR9) [nM] | IC50 (human TLR7) [nM] | IC50 (human TLR8) [nM] | SMILES
1 | 2500 | 7800 | > 50000 | Cc1nc(-c2ccc(N3CCC(N4CCCC4)CC3)cc2)c(F)c2c1nc(-c1ccc(S(C)(=O)=O)cc1)n2C [Example 44, 7-fluoro-1,4-dimethyl-2-(4-(methylsulfonyl)phenyl)-6-(4-(4-(pyrrolidin-1-yl)piperidin-1-yl)phenyl)-1H-imidazo[4,5-c]pyridine]
2 | 170 | 5500 | 6800 | Cc1nc(-c2ccc(N3CCC4(CC3)CN(CC(C)(C)O)C4)cc2)cc2c1nc(-c1ccc(S(C)(=O)=O)cc1)n2C [Example 91, 1-(7-(4-(1,4-dimethyl-2-(4-(methylsulfonyl)phenyl)-1H-imidazo[4,5-c]pyridin-6-yl)phenyl)-2,7-diazaspiro[3.5]nonan-2-yl)-2-methylpropan-2-ol]
3 | 360 | 2900 | 12000 | Cc1nc(-c2ccc(N3CCN(CC4CC4)CC3)cc2)cc2c1nc(-c1ccc(S(C)(=O)=O)cc1)n2C [Example 20, 6-(4-(4-(cyclopropylmethyl)piperazin-1-yl)phenyl)-1,4-dimethyl-2-(4-(methylsulfonyl)phenyl)-1H-imidazo[4,5-c]pyridine]
4 | 170 | 3200 | 2500 | COc1ccc(-c2nc3cnc(-c4ccc(N5CC6(CN(CC(C)C)C6)C5)cc4)cc3n2C2CC2)cc1OC [Example 85, 1-cyclopropyl-2-(3,4-dimethoxyphenyl)-6-(4-(6-isobutyl-2,6-diazaspiro[3.3]heptan-2-yl)phenyl)-1H-imidazo[4,5-c]pyridine]
5 | 230 | 1700 | 5500 | Cc1nc(-c2ccc(CN3CCC(N(C)C4CC4)CC3)cc2)cc2c1nc(-c1ccc(S(C)(=O)=O)cc1)n2C [Example 47, N-cyclopropyl-1-(4-(1,4-dimethyl-2-(4-(methylsulfonyl)phenyl)-1H-imidazo[4,5-c]pyridin-6-yl)benzyl)-N-methylpiperidin-4-amine]
6 | 450 | 3000 | 3300 | Cc1nc(-c2ccc(N3CCN(C4CCC4)CC3)cc2)cc2c1nc(-c1ccc(S(C)(=O)=O)cc1)n2C [Example 21, 6-(4-(4-cyclobutylpiperazin-1-yl)phenyl)-1,4-dimethyl-2-(4-(methylsulfonyl)phenyl)-1H-imidazo[4,5-c]pyridine]
7 | 790 | 7200 | 22000 | Cc1nc(-c2ccc(CN3CCN(C(C)C)CC3)cc2)cc2c1nc(-c1ccc(S(C)(=O)=O)cc1)n2C [Example 5, 6-(4-((4-isopropylpiperazin-1-yl)methyl)phenyl)-1,4-dimethyl-2-(4-(methylsulfonyl)phenyl)-1H-imidazo[4,5-c]pyridine]
8 | 220 | 3100 | 900 | CC(C)CN1CC2(CCN(c3ccc(-c4cc5c(cn4)nc(-c4ccc(S(C)(=O)=O)cc4)n5C)cc3)C2)C1 [Example 99, 6-(4-(2-isobutyl-2,6-diazaspiro[3.4]octan-6-yl)phenyl)-1-methyl-2-(4-(methylsulfonyl)phenyl)-1H-imidazo[4,5-c]pyridine]
9 | 980 | 30000 | > 50000 | Cc1nc(-c2ccc(N3CC4(C3)CN(C3COC3)C4)cc2)cc2c1nc(-c1ccc(S(C)(=O)=O)cc1)n2C [Example 107, 1,4-dimethyl-2-(4-(methylsulfonyl)phenyl)-6-(4-(6-(oxetan-3-yl)-2,6-diazaspiro[3.3]heptan-2-yl)phenyl)-1H-imidazo[4,5-c]pyridine]
10 | 820 | 850 | > 50000 | COc1ccc(-c2nc3c(C)nc(-c4ccc(N5CCN(C6CCC6)CC5)cc4)cc3n2C)cc1OC [Example 19, 6-(4-(4-cyclobutylpiperazin-1-yl)phenyl)-2-(3,4-dimethoxyphenyl)-1,4-dimethyl-1H-imidazo[4,5-c]pyridine]
11 | 74 | 3100 | 7600 | Cc1nc(-c2ccc(CCN3CCC(N4CCOCC4)CC3)cc2)cc2c1nc(-c1ccc(S(C)(=O)=O)cc1)n2C [Example 53, 4-(1-(4-(1,4-dimethyl-2-(4-(methylsulfonyl)phenyl)-1H-imidazo[4,5-c]pyridin-6-yl)phenethyl)piperidin-4-yl) morpholine]
12 | 250 | 5100 | 1200 | CC(C)N1CC2(CCN(c3ccc(-c4cc5c(cn4)nc(-c4ccc(S(C)(=O)=O)cc4)n5C4CC4)cc3)CC2)C1 [Example 62, 1-cyclopropyl-6-(4-(2-isopropyl-2,7-diazaspiro[3.5]nonan-7-yl)phenyl)-2-(4-(methylsulfonyl)phenyl)-1H-imidazo[4,5-c]pyridine]
13 | 290 | 3900 | 2300 | Cc1nc(-c2ccc(N3CCC(N4CCCC4)CC3)cc2F)cc2c1nc(-c1ccc(S(C)(=O)=O)cc1)n2C [Example 43, 6-(2-fluoro-4-(4-(pyrrolidin-1-yl)piperidin-1-yl)phenyl)-1,4-dimethyl-2-(4-(methylsulfonyl)phenyl)-1H-imidazo[4,5-c]pyridine]
